Source: publication PMC7466753, “An epoxide hydrolase from endophytic Streptomyces shows unique structural features and wide biocatalytic activity” (Acta Crystallographica. Section D, Structural Biology, 2020)

Assays:
B1EPH2 = biological target: T1, B1EPH2 (Streptomyces sp. CBMAI 2042, UniProt A0ACD6BAW7); assay: adrenaline test (periodate back-titration, […] nm); assay type: biochemical; settings: pH 6.0 sodium phosphate; racemic substrate in DMSO
T1 construct: gene STAN_0072; ORF in pET-29b(+), E. coli BL21(DE3), nickel IMAC and gel filtration; protomer 37 kDa, hexamer (252 kDa by gel filtration)

[1] = biological target: the molecule itself; assay: crystal structure; X-ray, 2.2 Å, space group P4(1)22; hanging drop, 0.1 M sodium cacodylate pH 6.5, 1 M trisodium citrate, protein 12.5 mg/ml in 50 mM HEPES pH 8.0, 300 mM NaCl; three protomers in the asymmetric unit, hexamer by twofold crystallographic symmetry

c1ccc(OCC2CO2)cc1 (racemic) [compound 3, phenyl glycidyl ether]
% conversion relative to 1,2-cyclohexanediol (B1EPH2): 25%

B1: B1EPH2, α/β-epoxide hydrolase from Streptomyces sp. CBMAI 2042 (enzyme)
chain: VPQPPTDDPTTPAEKGAVHRLVDTPGGRIHLVEQGTGPLVLLVHGFPESWYSWRHQLPALAAAGYRAAAIDVRGYGRSAKPAATDAYRMLAHVADNTAVVHALGEETATVVGHDWGSPIAANSALLRPDVFTAVGLLSVPYAPRGEHRPTDGFARIGGDEEFYVSYFQAPGRAEAEIERDVRGWLAGFYTGLTGGALTPEEHGRLFFVPPGAHLADRFPTGPLPAWLTEADLDVYSGEFERSGLTGALNRYRNVDRDWEDLAAWHGAPITQPSLFIGGALDASTTWMADALDAYPATLPGLSAAHILEGCGHWIQQERPDEVNRLLTQWLDGLR
notes: B1EPH2, putative α/β-epoxide hydrolase of Streptomyces sp; CBMAI 2042; the text says 344 amino acids; the b1eph2 ORF was amplified from genomic DNA and cloned into pET-29b(+) (plasmid pGTEPH2); Hexamer by the crystal structure (three protomers in the asymmetric unit, twofold crystallographic symmetry) and by analytical gel filtration; they are surmised from pET-29b(+) and the nickel column; also …
stoichiometry N [1]: 6
